For one data set, the system named is HCT 116. Kind of data set: HCT 116 human colon cancer xenograft model. The format is in vivo, SCID mice. The note with it: 25 mg/Kg (M-F). Here is the method:
(§1) All experiments were carried out using male or female 6-8 week old SCID Hsd:ICR(CD-1) mice (Harlan, Indianapolis, Ind.). A-549 cells were harvested, resuspended in DMEM minus serum, and injected subcutaneously into the right flanks (4×10^6 cells/flank in a 300 μL volume). HCT 116 cells were harvested, resuspended in McCoy's 5A minus serum, and injected subcutaneously into the right and left flanks (5×10^6 cells/flank in a 300 μL volume). Tumor volumes were determined by measuring the length (1) and the width (w) and calculating the volume (V=1 w^2/2). Depending on the study, the tumors were between about 150 mm^3-about 800 mm^3 at the time of animal randomization into treatment groups (n=8-10 mice per group).
(§2) Control animals received 200 μL injections of vehicle only.
(§3) Evaluation of the results included statistical analysis of differences in tumor size between test and control groups at the end of each treatment period. Group means were compared using a one-way ANOVA. If the ANOVA was significant, i.e., p≦0.05, a Dunnett's multiple comparison test was used to determine which groups were different. Only animals surviving to the completion of the treatment period were included in the analysis.
Background: Xenograft models place foreign cells or tissue in a host animal.

The conditions of data set [1]: cited from earlier work.
The test system of data set [2] is A549 human lung tumor xenografts. Kind of data set: A549 human lung tumor xenograft model. Format: in vivo, SCID mice. The note with it: for Reduction in Tumor Volume (% decrease relative to control), positive control: 20 mg/Kg (M, W, F); for Reduction in Tumor Volume (% decrease relative to control), positive control / Tumor volume compared to control animals, single agent alone: 2 week treatment; for Tumor volume compared to control animals, single agent alone: female SCID mice. The procedure:
as §1, §2, §3
A549 cells were injected subcutaneously into female SCID mice and the tumor volumes were allowed to reach about 400 mm^3 prior to animal randomization. Animals were administered one of the above combinations or saline vehicle control intraperitoneally five times per week (each day, Monday through Friday) for two weeks.
A549 cells were injected subcutaneously into male SCID mice and the tumor volumes were allowed to reach about 400 mm^3 prior to animal randomization. Animals were administered drug combination or vehicle control intraperitoneally five times per week (each day, Monday through Friday) for three weeks. Treatment was stopped for a one week recovery period, then continued as before for an additional two weeks.

For data set [3] the following is noted: mouse, in vivo. Here is the method:
Unless otherwise stated, drugs were administered daily Monday to Friday. Paclitaxel was administered 3 days per week, Monday, Wednesday, and Friday only. All drugs were administered by intraperitoneal injection in a volume of 100 μL/25 grams. Animals undergoing combination therapy received two individual injections for a total of 200 μL per mouse. Control animals received 200 μL injections of vehicle only.

The conditions of data set [4]: gastrointestinal tract; cited from earlier work.
The conditions of data set [5]: mice, single intraperitoneal injection 10 mg/kg; cited from earlier work.
The target of data set [6] is T1, protein tyrosine phosphatase 1B (PTP1B) (Homo sapiens, UniProt P18031).
T1 sequence (P18031 1-435): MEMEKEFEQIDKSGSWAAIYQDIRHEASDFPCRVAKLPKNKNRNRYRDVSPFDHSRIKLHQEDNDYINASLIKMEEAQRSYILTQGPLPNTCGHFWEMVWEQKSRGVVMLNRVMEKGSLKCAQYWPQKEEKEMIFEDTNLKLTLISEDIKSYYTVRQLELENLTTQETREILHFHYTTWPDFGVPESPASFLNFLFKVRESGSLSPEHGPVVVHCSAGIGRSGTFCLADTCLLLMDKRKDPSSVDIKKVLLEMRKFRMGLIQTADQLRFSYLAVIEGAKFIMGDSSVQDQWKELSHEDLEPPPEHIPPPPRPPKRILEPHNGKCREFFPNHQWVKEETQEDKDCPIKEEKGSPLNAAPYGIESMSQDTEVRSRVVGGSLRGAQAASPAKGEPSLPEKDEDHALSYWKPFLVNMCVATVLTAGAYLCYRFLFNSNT
As to conditions: cited from earlier work.

Data set [7] has as its system phosphatases of regenerating liver (PRL). As to conditions: cited from earlier work.
Another data set relates to endo-exonuclease. The note with it: PCT Publication No. WO 01/35935; cited from earlier work.

“And” between values parts separate entries of the source, which are not always exact repeats. Equal values may be shown once. Read-outs that look alike come from different tables or passages of the source.

As for `O=c1[nH]cc(F)c(=O)[nH]1` [5-FU, 5-fluorouracil], in the data set on HCT 116, the “Reduction in Tumor Volume (% decrease relative to control), positive control” value was determined as 47%.

Regarding `N=C(N)c1ccc(OCCCCCOc2ccc(C(=N)N)cc2)cc1` [Pentamidine isethionate, 4,4′-diamidino-diphenoxypentane di(β-hydroxyethanesulfonate)], the Solubility result is reported as “insoluble” in data set [1] (ether, acetone, and chloroform); “soluble” in [1] (water and glycerin).

Turning to `CC(=O)O[C@H]1C(=O)[C@@]2(C)[C@H]([C@H](OC(=O)c3ccccc3)[C@]3(O)C[C@H](OC(=O)[C@H](O)[C@@H](NC(=O)c4ccccc4)c4ccccc4)C(C)=C1C3(C)C)[C@]1(OC(C)=O)CO[C@@H]1C[C@@H]2O` [Taxol, paclitaxel], the “Reduction in Tumor Volume (% decrease relative to control), positive control” value in data set [2] is 24% and 29%; in data set [2] (listed as paclitaxel) it was 24%. Besides, the “Tumor volume less than vehicle control” value in data set [2] (20 mg/Kg, end of first treatment period (3 weeks), male SCID mice) stood at 27%.

Consider `CN(C)CCCN1c2ccccc2Sc2ccc(Cl)cc21` [chlorpromazine], for which the “Tumor volume compared to control animals, single agent alone” value in data set [2] is given as “no decrease in tumor volumes”. Also, the “Time to sedation after administration” value in data set [3] (SCID Hsd:ICR(CD-1), ip) was ≤ 10 min. Also, the “Sedation and hypothermia at lower doses” value in data set [3] is “reduced period of sedation and associated hypothermia”. Also, in data set [4], the Absorption entry is “readily absorbed”.

As for `N=C(N)c1ccc(OCCCCCOc2ccc(C(=N)N)cc2)cc1` [pentamidine], in data set [2], the “Tumor volume compared to control animals, single agent alone” value is “no decrease in tumor volumes”. Moreover, in [5], the Tissue distribution result is “concentration in the kidneys was the highest, followed by that in the liver”. Also, the “Inhibition of PTP1B” value in data set [6] was “effective inhibitor”. The “Inhibition of PRL” value in data set [7] is listed as “potent inhibitor”. Moreover, the “Inhibition of endo-exonuclease activity” value in the data set on endo-exonuclease was “inhibit the activity”.

The values are drawn from US20070099905A1, “Combinations of drugs for the treatment of neoplasms” (priority 2002, published 2007).
